The test has as its system naïve human CD4+ T-cells and dendritic cells. The test is classed as cell-based. The note with it: for T-cell epitope designation: Ber e 1 dataset, background 4.27%.

On to LEGMDESCRCEGLRM [peptide #12], for which the T-cell epitope designation result (5 μM peptide) is listed as “minor epitopes”.

For LRMMMMRMQQEEMQP [Peptide # 16], the T-cell epitope designation entry (5 μM peptide) is “does not reach any epitope designation”.

In the case of MQPRGEQMRRMMRLA [peptide #20], the T-cell epitope designation entry (5 μM peptide) is “minor epitopes”.

Take RQQMLSHCRMYMRQQ [peptide #4]: the “percentage of the donor pool that responded with a baseline-normalized response of 2.95 or better (percent responders)” value (Ber e 1 15-mer peptide set, 5 μM peptide, human donors) amounted to 18.48%. In addition, the T-cell epitope designation result (5 μM peptide) is recorded as “reached the three-fold cut-off”.

Take “tetanus toxoid: positive control antigen in the T-cell proliferation assay [reference compound]”: the “positive control response (T-cell proliferation)” value (positive control antigen in all tests reported) is listed as “robust positive control responses”.

Source of the values: patent publication US20040209312A1, “Identifying and reducing the allergenicity of food proteins” (priority 2001, published 2004).
